Activity calls are given as the source filed them. The rule behind the calls is not given here.
Tests used:
[1] = Stability in human liver S9 fraction assessed as parent compound remaining at 1 uM measured after 4 hrs by LC-MS/MS analysis; format: ADME, subcellular; settings: read-out: Stability
[2] = tested on: Influenza A virus; experiment: Antiviral activity against Influenza A/California/04/2009 (H1N1)pdm09 infected in MDCK cells assessed as protection against virus-induced cell death by CellTiter-Glo assay; format: functional, organism-based; settings: A/California/04/2009(H1N1) pdm09, MDCK
[3] = Ratio of AUClast in CD1 mouse lung to plasma at 10 mg/kg, po administered as single dose by LC-MS/MS analysis; format: ADME, organism-based; settings: lung and plasma, read-out: Ratio AUC
[4] = Oral bioavailability in CD1 mouse at 10 mg/kg administered as single dose by LC-MS/MS analysis; format: ADME, organism-based; settings: in vivo
[5] = Selectivity index, ratio of CC50 for MDCK cells to EC50 for Influenza A/California/04/2009 (H1N1)pdm09 virus infected in MDCK cells; format: toxicity, cell-based; settings: dog, read-out: Ratio CC50/EC50
[6] = Cmax in CD1 mouse lung at 10 mg/kg, po administered as single dose by LC-MS/MS analysis; format: ADME, organism-based; parameters: dose 10 mg/kg, route oral
[7] = Stability in simulated gastric fluid assessed as parent compound remaining at 1 uM measured after 4 hrs at pH 1.2 by LC-MS/MS analysis; format: physicochemical; settings: read-out: Stability
[8] = Stability in rat liver S9 fraction assessed as parent compound remaining at 1 uM measured after 4 hrs by LC-MS/MS analysis; format: ADME, subcellular; settings: read-out: Stability
[9] = Ratio of Cmax in CD1 mouse lung to plasma at 10 mg/kg, po administered as single dose by LC-MS/MS analysis; format: ADME, organism-based; settings: lung and plasma
[10] = Cytotoxicity against MDCK cells assessed as reduction in cell viability by CellTiter-Glo assay; format: cell-based, Canis lupus familiaris; settings: dog
[11] = tested on: HEK-293T; experiment: (§1) Inhibition of CEN polymerase activity in Influenza A/California/04/2009 (H1N1)pdm09 NP/PA/PB1/PB2 complex transfected in HEK293T cells co-expressing beta-galactosidase at 100 nM preincubated for 3 hrs followed by viral gene transfection and measured after 24 hrs by ONPG substrate based luciferase reporter gene mini-replicon assay relative to control; format: cell-based; settings: Influenza A virus (A/California/04/2009(H1N1))
[12] = tested on: HEK-293T; experiment: as §1, with “25” for “100”; format: cell-based; settings: Influenza A virus (A/California/04/2009(H1N1))
[13] = AUClast in CD1 mouse plasma at 2 mg/kg, iv administered as single dose by LC-MS/MS analysis; format: ADME, organism-based; parameters: dose 2 mg/kg, route intravenous, time 0 - last
[14] = AUClast in CD1 mouse plasma at 10 mg/kg, po administered as single dose by LC-MS/MS analysis; format: ADME, organism-based; parameters: dose 10 mg/kg, route oral, time 0 - last
[15] = Cmax in CD1 mouse plasma at 10 mg/kg, po administered as single dose by LC-MS/MS analysis; format: ADME, organism-based; parameters: dose 10 mg/kg, route oral
[16] = Stability in mouse liver S9 fraction assessed as parent compound remaining at 1 uM measured after 4 hrs by LC-MS/MS analysis; format: ADME, subcellular; settings: read-out: Stability
[17] = AUClast in CD1 mouse lung at 10 mg/kg, po administered as single dose by LC-MS/MS analysis; format: ADME, organism-based; settings: in vivo
[18] = Stability in simulated intestinal fluid assessed as parent compound remaining at 1 uM measured after 4 hrs at pH 1.2 by LC-MS/MS analysis; format: physicochemical; settings: read-out: Stability
[19] = AUClast in CD1 mouse lung assessed as (12aR)-12-[Bis(4-fluorophenyl)methyl]-7-hydroxy-3,4,12,12a-tetrahydro-1H-[1,4]oxazino[3,4-c]pyrido[2,1-f][1,2,4]triazine-6,8-dione level at 15 mg/kg, po administered as single dose by LC-MS/MS analysis; format: ADME, organism-based; settings: in vivo
[20] = AUClast in CD1 mouse plasma assessed as (12aR)-12-[Bis(4-fluorophenyl)methyl]-7-hydroxy-3,4,12,12a-tetrahydro-1H-[1,4]oxazino[3,4-c]pyrido[2,1-f][1,2,4]triazine-6,8-dione level at 15 mg/kg, po administered as single dose by LC-MS/MS analysis; format: ADME, organism-based; parameters: dose 15 mg/kg, time 0 - last, route oral; settings: in vivo
[21] = Ratio of AUClast in CD1 mouse lung to plasma assessed as (12aR)-12-[Bis(4-fluorophenyl)methyl]-7-hydroxy-3,4,12,12a-tetrahydro-1H-[1,4]oxazino[3,4-c]pyrido[2,1-f][1,2,4]triazine-6,8-dione level at 15 mg/kg, po administered as single dose by LC-MS/MS analysis; format: ADME, organism-based; settings: other tissue
[22] = Cmax in CD1 mouse plasma assessed as (12aR)-12-[Bis(4-fluorophenyl)methyl]-7-hydroxy-3,4,12,12a-tetrahydro-1H-[1,4]oxazino[3,4-c]pyrido[2,1-f][1,2,4]triazine-6,8-dione level at 15 mg/kg, po administered as single dose by LC-MS/MS analysis; format: ADME, organism-based; parameters: dose 15 mg/kg, route oral; settings: in vivo
[23] = Oral bioavailability in CD1 mouse assessed as (12aR)-12-[Bis(4-fluorophenyl)methyl]-7-hydroxy-3,4,12,12a-tetrahydro-1H-[1,4]oxazino[3,4-c]pyrido[2,1-f][1,2,4]triazine-6,8-dione level at 15 mg/kg administered as single dose by LC-MS/MS analysis; format: ADME, organism-based; settings: in vivo
[24] = Cmax in CD1 mouse lung assessed as (12aR)-12-[Bis(4-fluorophenyl)methyl]-7-hydroxy-3,4,12,12a-tetrahydro-1H-[1,4]oxazino[3,4-c]pyrido[2,1-f][1,2,4]triazine-6,8-dione level at 15 mg/kg, po administered as single dose by LC-MS/MS analysis; format: ADME, organism-based; parameters: dose 15 mg/kg, route oral; settings: in vivo
[25] = Ratio of Cmax in CD1 mouse lung to plasma assessed as (12aR)-12-[Bis(4-fluorophenyl)methyl]-7-hydroxy-3,4,12,12a-tetrahydro-1H-[1,4]oxazino[3,4-c]pyrido[2,1-f][1,2,4]triazine-6,8-dione level at 15 mg/kg, po administered as single dose by LC-MS/MS analysis; format: ADME, organism-based; settings: other tissue
[26] = Stability in mouse plasma assessed as parent compound remaining at 1 uM measured after 4 hrs by LC-MS/MS analysis; format: ADME, cell-free; settings: read-out: Stability
[27] = Stability in human plasma assessed as parent compound remaining at 1 uM measured after 4 hrs by LC-MS/MS analysis; format: ADME, cell-free; settings: read-out: Stability
[28] = Stability in rat plasma assessed as parent compound remaining at 1 uM measured after 4 hrs by LC-MS/MS analysis; format: ADME, cell-free; settings: read-out: Stability
[29] = tested on: Influenza A virus; experiment: Antiviral activity against Influenza A virus (A/Denmark/524/2009(H1N1)) pdm09 infected in MDCK cells assessed as protection against virus-induced cell death measured 72 to 96 hrs post-infection by CellTiter-Glo assay; format: functional, organism-based
[30] = tested on: Influenza B virus; experiment: Antiviral activity against Victoria lineage of Influenza B virus (B/Brisbane/60/2008) infected in MDCK cells assessed as protection against virus-induced cell death measured 72 to 96 hrs post-infection by CellTiter-Glo assay; format: functional, organism-based
[31] = tested on: Influenza A virus H3N2; experiment: Antiviral activity against Influenza A virus (A/Fukui/20/2004 (H3N2)) infected in MDCK cells assessed as protection against virus-induced cell death measured 72 to 96 hrs post-infection by CellTiter-Glo assay; format: functional, organism-based
[32] = tested on: Influenza B virus; experiment: Antiviral activity against Yamagata lineage of Influenza B virus (B/Florida/4/2006) infected in MDCK cells assessed as protection against virus-induced cell death measured 72 to 96 hrs post-infection by CellTiter-Glo assay; format: functional, organism-based

Compound: O=C1c2c(O)c(=O)ccn2N(C(c2ccc(F)cc2)c2ccc(F)cc2)[C@@H]2COCCN12
- remaining at 4 h, 1 µM [1]: 97%
- EC50 [2]: 0.0134 µM
- Kp [3]: 2.5
- bioavailability [4]: 22.6%
- selectivity ratio [5]: 993
- Cmax [6]: 935 ng/g
- remaining at 4 h, 1 µM [7]: 87.3%
- remaining at 4 h, 1 µM [8]: 98.3%
- Kp [9]: 3
- CC50 [10]: 13.3 µM
- inhibition [11]: 80%
- inhibition [12]: 45.4%
- AUC(0-t) [13]: 1070 ng·h/mL
- AUC(0-t) [14]: 1820 ng·h/mL
- Cmax [15]: 308 ng/mL
- remaining at 4 h, 1 µM [16]: 103%
- AUClast [17]: 4490 ng·h/g
- remaining at 4 h, 1 µM [18]: 96%

Compound: O=C(O)CCCc1ccc(N(CCCl)CCCl)cc1 [CHLORAMBUCIL]
- remaining at 4 h, 1 µM [7]: 97.2%
- remaining at 4 h, 1 µM [18]: 0.04%

Compound: CSc1ccccc1[C@@H](c1ccc(F)c(F)c1)N1[C@@H]2COCCN2C(=O)c2c(O)c(=O)ccn21
- EC50 [2]: 0.146 µM
- selectivity ratio [5]: 67
- CC50 [10]: 9.8 µM
- inhibition [11]: 13.2%
- inhibition [12]: 3.1%

Compound: O=C1c2c(O)c(=O)ccn2N(C(c2ccc(F)c(F)c2)c2ccc(F)c(F)c2)[C@@H]2COCCN12
- EC50 [2]: 0.0226 µM
- selectivity ratio [5]: 611
- CC50 [10]: 13.8 µM
- inhibition [11]: 80.9%
- inhibition [12]: 50.2%

Compound: COC(=O)OCOc1c2n(ccc1=O)N(C(c1ccc(F)cc1)c1ccc(F)cc1)[C@@H]1COCCN1C2=O
- AUClast [19]: 3302 ng·h/g
- remaining at 4 h, 1 µM [7]: 98.4%
- AUClast [20]: 3186 ng·h/mL
- Ratio AUC [21]: 1
- Cmax [22]: 647 ng/mL
- F [23]: 39.6%
- Cmax [24]: 708 ng/g
- Ratio [25]: 1.1
- remaining at 4 h, 1 µM [18]: 99.7%

Compound: O=C1c2c(O)c(=O)ccn2N([C@@H](c2ccccc2)c2ccc(F)c(F)c2)[C@@H]2COCCN12
- remaining at 4 h, 1 µM [1]: 113%
- EC50 [2]: 0.0225 µM
- remaining at 4 h, 1 µM [26]: 105%
- remaining at 4 h, 1 µM [27]: 90.3%
- Kp [3]: 0.9
- remaining at 4 h, 1 µM [28]: 85.8%
- EC50 ([29]; A/Denmark/524/2009(H1N1) pdm09, MDCK): 0.0036 to 0.0125 µM
- EC50 ([30]; B/Brisbane/60/2008, MDCK): 5.1 to 28.3 µM
- bioavailability [4]: 17.6%
- selectivity ratio [5]: 538
- Cmax [6]: 501 ng/g
- EC50 ([31]; A/Fukui/20/2004, MDCK): 0.0036 to 0.0125 µM
- remaining at 4 h, 1 µM [8]: 99.6%
- Kp [9]: 1.5
- CC50 [10]: 12.1 µM
- inhibition [11]: 63.2%
- inhibition [12]: 28.4%
- AUC(0-t) [13]: 927 ng·h/mL
- AUC(0-t) [14]: 817 ng·h/mL
- Cmax [15]: 332 ng/mL
- EC50 ([32]; B/Florida/4/2006, MDCK): 5.1 to 28.3 µM
- remaining at 4 h, 1 µM [16]: 92.4%
- AUClast [17]: 735 ng·h/g

Compound: O=C1c2c(O)c(=O)ccn2N([C@@H]2c3ccccc3SCc3c2ccc(F)c3F)[C@@H]2COCCN12 [BALOXAVIR]
- remaining at 4 h, 1 µM [1]: 93.5%
- EC50 [2]: 0.0009 µM
- remaining at 4 h, 1 µM [26]: 45.4%
- remaining at 4 h, 1 µM [27]: 89.9%
- remaining at 4 h, 1 µM [28]: 73.9%
- Activity [29]: Active
- Activity [30]: Active
- bioavailability [4]: 3%
- selectivity ratio [5]: > 1000
- Activity [31]: Active
- remaining at 4 h, 1 µM [8]: 85%
- CC50 [10]: 5.6 µM
- inhibition [11]: 99.7%
- inhibition [12]: 99.6%
- AUC(0-t) [13]: 354 ng·h/mL
- AUC(0-t) [14]: 79.9 ng·h/mL
- Cmax [15]: 11.9 ng/mL
- Activity [32]: Active
- remaining at 4 h, 1 µM [16]: 87.7%

Compound: CC(C)[N+](C)(CCOC(=O)C1c2ccccc2Oc2ccccc21)C(C)C [PROPANTHELINE]
- remaining at 4 h, 1 µM [26]: 1.21%
- remaining at 4 h, 1 µM [27]: 1.28%
- remaining at 4 h, 1 µM [28]: 74.3%

Compound: CSc1ccccc1[C@H](c1ccc(F)c(F)c1)N1[C@@H]2COCCN2C(=O)c2c(O)c(=O)ccn21
- EC50 [2]: 0.0321 µM
- selectivity ratio [5]: 511
- CC50 [10]: 16.4 µM
- inhibition [11]: 74.1%
- inhibition [12]: 22.9%

Compound: O=C1c2c(O)c(=O)ccn2N([C@H](c2ccccc2)c2ccc(F)c(F)c2)[C@@H]2COCCN12
- remaining at 4 h, 1 µM [1]: 104%
- EC50 [2]: 0.0154 µM
- remaining at 4 h, 1 µM [26]: 114%
- remaining at 4 h, 1 µM [27]: 85.7%
- Kp [3]: 1.3
- remaining at 4 h, 1 µM [28]: 94.4%
- bioavailability [4]: 2.7%
- selectivity ratio [5]: > 1000
- Cmax [6]: 264 ng/g
- remaining at 4 h, 1 µM [8]: 95.4%
- Kp [9]: 2.3
- CC50 [10]: 15.9 µM
- inhibition [11]: 83.9%
- inhibition [12]: 42.2%
- AUC(0-t) [13]: 2210 ng·h/mL
- AUC(0-t) [14]: 303 ng·h/mL
- Cmax [15]: 115 ng/mL
- remaining at 4 h, 1 µM [16]: 95.2%
- AUClast [17]: 384 ng·h/g

Compound: O=c1ccc2ccc(O)cc2o1 [UMBELLIFERONE]
- remaining at 4 h, 1 µM [1]: 0.39%
- remaining at 4 h, 1 µM [8]: 2.74%
- remaining at 4 h, 1 µM [16]: 0.83%

Reference: ChEMBL document CHEMBL4622979, “Non-rigid Diarylmethyl Analogs of Baloxavir as Cap-Dependent Endonuclease Inhibitors of Influenza Viruses” (J Med Chem, 2020)
